Data on three compounds can be found in ChEMBL document CHEMBL1145503, “Paradoxical effect of Echinocandins across Candida species in vitro: evidence for echinocandin-specific and candida species-related differences” (2007).

Converted amounts (≈) assume the structure as drawn. Numbered stars: 1 amine (or outer) side, 2 acyl side, 3 side chain; on linkers, the order of the positions; unused ones are H or OH. Bridge positions count the residues as written; N and C are the ends. Square brackets hold non-standard residues; d marks the D form. Peptide text beside a SMILES is read from it. * marks the point of attachment. hTyr(3S-OH,4S-OH,3'-OSO3H) = N[C@H](C(=O)O)[C@H](O)[C@@H](O)c1ccc(O)c(OS(=O)(=O)O)c1; pTerphenylCO(4''-OnC5H11) = CCCCCOc1ccc(-c2ccc(-c3ccc(C(=O)*)cc3)cc2)cc1; Orn(4R-OH,5R-OH) = O=C([C@H](C[C@@H](O)[C@@H](O)N[*:3])N[*:1])[*:2]; hTyr(3S-OH,4S-OH) = N[C@H](C(=O)O)[C@H](O)[C@@H](O)c1ccc(O)cc1; Pro(3S-OH,4S-Me) = C[C@H]1CN[C@H](C(=O)O)[C@H]1O; X1 = CCCCCOc1ccc(-c2cc(-c3ccc(C(=O)*)cc3)no2)cc1; Gln(3R-OH) = NC(=O)C[C@@H](O)[C@H](N)C(=O)O; Hyp = O=C(O)[C@@H]1C[C@@H](O)CN1

Common to all, as to type: functional
For experiment [1], the system named is Nakaseomyces glabratus. The experiment can be described thus: Antifungal activity against Candida glabrata after 48 hrs.
In experiment [2] the test system is Candida tropicalis. The experiment can be described thus: Paradoxical effect in Candida tropicalis assessed as increase in turbidity at 96 times MIC.
The test system of experiment [3] is Nakaseomyces glabratus. The experiment can be described thus: Paradoxical effect in Candida glabrata assessed as increase in turbidity at 96 times MIC.
Experiment [4] relates to Candida tropicalis. The experiment can be described thus: Antifungal activity against Candida tropicalis after 48 hrs.
Experiment [5] deals with Pichia kudriavzevii. The experiment can be described thus: Paradoxical effect in Candida krusei assessed as increase in turbidity at 96 times MIC.
For experiment [6], the system named is Candida parapsilosis. The experiment can be described thus: Antifungal activity against Candida parapsilosis after 48 hrs. The settings on record: Lodderomyces parapsilosis.
For experiment [7], the system named is Candida parapsilosis. The experiment can be described thus: Paradoxical effect in Candida parapsilosis assessed as increase in turbidity at 96 times MIC.
Experiment [8] relates to Candida albicans. The experiment can be described thus: Antifungal activity against Candida albicans after 48 hrs.
Experiment [9] has as its system Pichia kudriavzevii. The experiment can be described thus: Antifungal activity against Candida krusei after 48 hrs.
Experiment [10] relates to Candida albicans. The experiment can be described thus: Paradoxical effect in Candida albicans assessed as increase in turbidity at 96 times MIC.
Experiment [11] relates to Nakaseomyces glabratus. The experiment can be described thus: Paradoxical effect in Candida glabrata assessed as increase in turbidity at 64 times MIC.
Experiment [12] relates to Candida parapsilosis. The experiment can be described thus: Paradoxical effect in Candida parapsilosis assessed as increase in turbidity at 64 times MIC.
Experiment [13] deals with Candida tropicalis. The experiment can be described thus: Paradoxical effect in Candida tropicalis assessed as increase in turbidity at 64 times MIC.
Experiment [14] deals with Candida albicans. The experiment can be described thus: Paradoxical effect in Candida albicans assessed as increase in turbidity at 64 times MIC.
In experiment [15] the test system is Pichia kudriavzevii. The experiment can be described thus: Paradoxical effect in Candida krusei assessed as increase in turbidity at 64 times MIC.
In experiment [16] the test system is Candida tropicalis. The experiment can be described thus: Paradoxical effect in Candida tropicalis assessed as increase in turbidity at 16 times MIC.
Experiment [17] concerns Candida albicans. The experiment can be described thus: Paradoxical effect in Candida albicans assessed as increase in turbidity at 16 times MIC.
The subject of experiment [18] is Pichia kudriavzevii. The experiment can be described thus: Paradoxical effect in Candida krusei assessed as increase in turbidity at 16 times MIC.
Experiment [19] concerns Candida parapsilosis. The experiment can be described thus: Paradoxical effect in Candida parapsilosis assessed as increase in turbidity at 16 times MIC.
Experiment [20] deals with Nakaseomyces glabratus. The experiment can be described thus: Paradoxical effect in Candida glabrata assessed as increase in turbidity at 16 times MIC.

For the compound `CCCCCOc1ccc(-c2cc(-c3ccc(C(=O)N[C@H]4C[C@@H](O)[C@@H](O)NC(=O)[C@@H]5[C@@H](O)[C@@H](C)CN5C(=O)[C@H]([C@H](O)CC(N)=O)NC(=O)[C@H]([C@H](O)[C@@H](O)c5ccc(O)c(OS(=O)(=O)O)c5)NC(=O)[C@@H]5C[C@@H](O)CN5C(=O)[C@H]([C@@H](C)O)NC4=O)cc3)no2)cc1` [MICAFUNGIN] (X1-[Orn(4R-OH,5R-OH)]T[Hyp][hTyr(3S-OH,4S-OH,3'-OSO3H)][Gln(3R-OH)][Pro(3S-OH,4S-Me)]; lactam 1-C), the MIC50 (commonly an inhibitory concentration at the 50% level, which refers to growth in some studies and to a panel of isolates in others) is 0.06 µg/mL (≈ 0.0472 µM) against Nakaseomyces glabratus [1]; 0.06 µg/mL (≈ 0.0472 µM) with Candida tropicalis [4]; 1 µg/mL (≈ 0.787 µM) against Candida parapsilosis [6]; 0.25 µg/mL (≈ 0.197 µM) against Candida albicans [8]; 0.5 µg/mL (≈ 0.394 µM) in the experiment on Pichia kudriavzevii [9]. In addition, the MIC90 (commonly an inhibitory concentration at the 90% level, which refers to growth in some studies and to a panel of isolates in others) against Nakaseomyces glabratus [1] was found to be 0.125 µg/mL (≈ 0.0984 µM); against Candida tropicalis [4] it was 0.06 µg/mL (≈ 0.0472 µM); against Candida parapsilosis [6], 2 µg/mL (≈ 1.57 µM); in the experiment with Candida albicans [8] it was 0.25 µg/mL (≈ 0.197 µM); against Pichia kudriavzevii [9], 0.5 µg/mL (≈ 0.394 µM). In addition, the Activity is given as 70% in the experiment with Candida tropicalis [2]; 0% in the experiment on Nakaseomyces glabratus [3]; 60% with Pichia kudriavzevii [5]; 0% in the experiment with Candida parapsilosis [7]; 0% in the experiment on Candida albicans [10].

For `CC[C@H](C)C[C@H](C)CCCCCCCCC(=O)N[C@H]1C[C@@H](O)[C@@H](NCCN)NC(=O)[C@@H]2[C@@H](O)CCN2C(=O)[C@H]([C@H](O)CCN)NC(=O)[C@H]([C@H](O)[C@@H](O)c2ccc(O)cc2)NC(=O)[C@@H]2C[C@@H](O)CN2C(=O)[C@H]([C@@H](C)O)NC1=O` [CASPOFUNGIN], the Activity in the experiment on Nakaseomyces glabratus [11] is 0%; in the experiment with Candida parapsilosis [12] it was 90%; in the experiment with Candida tropicalis [13], 40%; in the experiment on Candida albicans [14], 60%; in the experiment with Pichia kudriavzevii [15], 10%. The MIC50 against Nakaseomyces glabratus [1] stood at 0.25 µg/mL (≈ 0.229 µM); with Candida tropicalis [4] it was 1 µg/mL (≈ 0.915 µM); in the experiment with Candida parapsilosis [6], 0.5 µg/mL (≈ 0.457 µM); in the experiment on Candida albicans [8], 0.125 µg/mL (≈ 0.114 µM); in the experiment on Pichia kudriavzevii [9] it was 0.06 µg/mL (≈ 0.0549 µM). The MIC90 was 0.5 µg/mL (≈ 0.457 µM) against Nakaseomyces glabratus [1]; 1 µg/mL (≈ 0.915 µM) with Candida tropicalis [4]; 1 µg/mL (≈ 0.915 µM) in the experiment on Candida parapsilosis [6]; 0.25 µg/mL (≈ 0.229 µM) in the experiment with Candida albicans [8]; 1 µg/mL (≈ 0.915 µM) in the experiment on Pichia kudriavzevii [9].

On to `CCCCCOc1ccc(-c2ccc(-c3ccc(C(=O)N[C@H]4C[C@@H](O)[C@@H](O)NC(=O)[C@@H]5[C@@H](O)[C@@H](C)CN5C(=O)[C@H]([C@@H](C)O)NC(=O)[C@H]([C@H](O)[C@@H](O)c5ccc(O)cc5)NC(=O)[C@@H]5C[C@@H](O)CN5C(=O)[C@H]([C@@H](C)O)NC4=O)cc3)cc2)cc1` [ANIDULAFUNGIN] ({pTerphenylCO(4''-OnC5H11)}-[Orn(4R-OH,5R-OH)]T[Hyp][hTyr(3S-OH,4S-OH)]T[Pro(3S-OH,4S-Me)]; lactam 1-C), for which the Activity with Candida tropicalis [16] was 20%; in the experiment with Candida albicans [17] it was 40%; in the experiment on Pichia kudriavzevii [18] it was 0%; in the experiment with Candida parapsilosis [19] it was 0%; in the experiment with Nakaseomyces glabratus [20], 0%. Besides, the MIC50 is 0.5 µg/mL (≈ 0.438 µM) against Nakaseomyces glabratus [1]; 0.5 µg/mL (≈ 0.438 µM) against Candida tropicalis [4]; 0.5 µg/mL (≈ 0.438 µM) in the experiment with Candida parapsilosis [6]; 0.5 µg/mL (≈ 0.438 µM) in the experiment with Candida albicans [8]; 0.25 µg/mL (≈ 0.219 µM) against Pichia kudriavzevii [9]. Besides, the MIC90 in the experiment with Nakaseomyces glabratus [1] amounted to 0.5 µg/mL (≈ 0.438 µM); in the experiment on Candida tropicalis [4] it was 1 µg/mL (≈ 0.877 µM); with Candida parapsilosis [6], 0.5 µg/mL (≈ 0.438 µM); against Candida albicans [8], 1 µg/mL (≈ 0.877 µM); in the experiment with Pichia kudriavzevii [9], 0.25 µg/mL (≈ 0.219 µM).
